One data set deals with Plasmodium falciparum. Put plainly: Antiplasmodial activity against chloroquine-sensitive Plasmodium falciparum 3D7 infected in human erythrocytes assessed as inhibition of parasite growth incubated for 72 hrs by DAPI staining based fluorescence analysis. It is filed as functional, organism-based. As to conditions: 3D7, Erythrocyte.
In another data set the test system is HEK293. Put plainly: Cytotoxicity against human HEK293 cells at 40 uM. It is filed as cell-based. As to conditions: hek293, 40 µM.
The nature of data set [1]: Cytotoxicity against human HEK293 cells assessed as cell death. The format is cell-based. As to conditions: read-out: LD50 (the source's name).

Consider seven compounds from ChEMBL document CHEMBL4699462, “Prenylated Flavonoids from the Roots of Tephrosia rhodesica” (J Nat Prod, 2020).

The structures appear in SMILES notation.

As a reminder, the IC50 is the concentration at which inhibition is half-maximal. `CC(C)=CCC1(CC=C(C)C)C(=O)C(=O)C2=C1O[C@H](c1ccccc1)C[C@H]2O` (relative stereo): the half-maximal inhibitory concentration (IC50) in the data set with Plasmodium falciparum came out at 7 µM. This compound showed an Activity in the data set with HEK293 of 101%.
As for `COc1cc(OC)c2c(c1CC=C(C)C)O[C@H](c1ccccc1)C[C@H]2O`, the 50% inhibitory concentration (IC50) with Plasmodium falciparum amounted to 14.5 µM.
For `CC(C)=CCc1cc2c(cc1O)OC[C@@]1(O)c3cc4c(cc3O[C@@H]21)OCO4`, the IC50 in the data set on Plasmodium falciparum was 10.2 µM. For the same compound, the Activity in the data set with HEK293 is 27%.
For the compound `CC(C)=CCC1(CC=C(C)C)C(=O)[C@@](O)(CC=C(C)C)C(=O)C2=C1O[C@H](c1ccccc1)C[C@H]2O` (relative stereo), the IC50 with Plasmodium falciparum came out at 7.3 µM. The compound further returned an Activity with HEK293 of 71%.
On the same counts, the results for `COc1cc(OC)c2c(c1CC=C(C)C)O[C@H](c1ccccc1)C[C@H]2OC` are 7.4 µM and 87%.
In the case of `C=C(C)[C@H]1Cc2c(ccc3c2O[C@@H]2C(O)Oc4cc(OC)c(OC)cc4[C@@H]2C3=O)O1` (stereo partly drawn), the IC50 in the data set with Plasmodium falciparum is 8.6 µM. For the same compound, the CC50 in data set [1] is 10.9 µM.
On to `CC(C)=CCC1(CC=C(C)C)C(=O)[C@](O)(CC=C(C)C)C(=O)C2=C1O[C@H](c1ccccc1)C[C@H]2O` (relative stereo), for which the IC50 with Plasmodium falciparum turned out to be 5.7 µM. The Activity in the data set with HEK293 amounted to 34%.
